Results on four compounds are retold here after paper PMC10287695, “Non-covalent inhibitors of thioredoxin glutathione reductase with schistosomicidal activity in vivo” (Nature Communications, 2023).

One assay concerns the target T1, S. mansoni TGR (Schistosoma mansoni, UniProt Q962Y6).
T1 construct: made in house
T1 sequence (Q962Y6 1-598): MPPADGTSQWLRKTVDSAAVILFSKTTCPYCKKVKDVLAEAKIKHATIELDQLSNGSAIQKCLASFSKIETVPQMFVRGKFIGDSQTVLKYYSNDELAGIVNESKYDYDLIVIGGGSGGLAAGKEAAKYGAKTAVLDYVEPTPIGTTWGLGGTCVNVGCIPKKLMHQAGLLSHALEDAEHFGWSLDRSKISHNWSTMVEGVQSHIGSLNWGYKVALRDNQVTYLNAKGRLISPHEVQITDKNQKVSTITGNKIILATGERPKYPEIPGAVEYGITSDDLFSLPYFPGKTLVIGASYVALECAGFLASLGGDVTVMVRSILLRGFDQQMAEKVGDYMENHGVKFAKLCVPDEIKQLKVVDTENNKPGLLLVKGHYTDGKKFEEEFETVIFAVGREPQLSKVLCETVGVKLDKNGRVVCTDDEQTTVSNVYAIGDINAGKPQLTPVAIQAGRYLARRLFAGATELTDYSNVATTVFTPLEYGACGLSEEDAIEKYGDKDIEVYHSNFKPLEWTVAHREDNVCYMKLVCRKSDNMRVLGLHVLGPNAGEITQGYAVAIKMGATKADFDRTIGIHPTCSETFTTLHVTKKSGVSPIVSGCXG
The experiment in a line: S. mansoni TGR enzyme inhibition (DTNB reduction). It is filed as biochemical. Particulars: for IC50 / S. mansoni TGR IC50: 15 min preincubation (enzyme + 100 µM NADPH + compound); for S. mansoni TGR inhibition (%) at 66.7 µM: 6 h preincubation (enzyme + 100 µM NADPH + compound).

A further assay relates to S. mansoni adult worms. The assay can be described thus: GSH/GSSG ratio in ex vivo adult worms. The format is cell-based. Particulars: for Decrease (%) in GSH/GSSG ratio: adult worms, 3 h exposure to compounds at 50 μM.
For assay [1], the system named is S. mansoni newly transformed schistosomula (NTS). The assay can be described thus: Schistosomicidal activity ex vivo, NTS (Cell Titer Glo). It is filed as cell-based. Particulars: for LD50 ex vivo S. mansoni NTS: 24 h exposure, Cell TiterGlo. In a few lines:
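Viability, expressed relative to DMSO-treated worms, was measured as ATP content (Cell Titer Glo) after 24 or 72 h of compound exposure in triplicate. Mechanically transformed S. mansoni NTS were cultured at 240 per well in M199 with glucose and 5% FBS at 37 °C; DMSO <1%, AF 5 µM as positive control.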
(In general: In ATP-based viability assays light output follows the ATP content of the culture.)

The mark [2] stands for this setting: TGR, 15 minutes pre-incubation, compound 15 µM, read-out: % inhibition.
Setting [3] is: TGR, 15 minutes pre-incubation, compound 30 µM, read-out: % inhibition.
[4] abbreviates: TGR, 15 minutes pre-incubation, compound 66.7 µM, read-out: % inhibition.
[5] abbreviates: 1 hr, third data set (r147-159), 0hr 72.45.
Where [6] appears, read: 1 hr, third data set (r147-159), 0hr = 100.
Where [7] appears, read: 1 hr, third data set, (values given as fraction).
The mark [8] stands for this setting: 3 hr, third data set (r147-159), 0hr 72.45.
Where [9] appears, read: 3 hr, third data set (r147-159), 0hr = 100.
Setting [10] is: 3 hr, third data set, (values given as fraction).
The mark [11] stands for this setting: adult worms ex vivo, 1 hr, relative to 0hr.
Where [12] appears, read: adult worms ex vivo, 1 hr, relative to 0hr, values given as fraction.
[13] abbreviates: adult worms ex vivo, 3 hr, relative to 0hr, values given as fraction.

Read-outs that look alike come from different tables or passages of the source. Marks after values point to notes of the source that are not given here. Where only a bound is given, the exact number is not on record here.

As to `C[C@@H]1[C@H]2C[C@@H](C[C@H]1NCc1nc3ccccc3n1C1CCCCCC1)C2(C)C` [Compound 8], the IC50 on S. mansoni TGR is 10.3 ± 2.01 µM. Besides, the inhibition at 15 µM at S. mansoni TGR (setting [2]) was 57.4%. For the same compound, the inhibition at 30 µM at S. mansoni TGR (setting [3]) was 62.9%. Besides, the inhibition at 66.7 µM at S. mansoni TGR (setting [4]) amounted to 78.8%. Besides, the “Reduction (%) in GSH/GSSG ratio” value with S. mansoni adult worms (1 hr, third data set) came out at 13.1896%; in the assay on S. mansoni adult worms (setting [7]) it was 0.13%; in the assay with S. mansoni adult worms (3 hr, third data set), 20.8885%; in the assay on S. mansoni adult worms (setting [10]) it was 0.21%; in the assay with S. mansoni adult worms (setting [11]) it was 14.1592%; in the assay on S. mansoni adult worms (setting [12]), 0.1416%. Also, the “Reduction (%) in GSH/GSSG ratio” value with S. mansoni adult worms (setting [13]) was 0.2338%. The “Ratio GSH/GSSG” value in the assay on S. mansoni adult worms (setting [5]) stood at 62.89; in the assay on S. mansoni adult worms (setting [8]) it was 57.32. The “% Ratio GSH/GSSG” value is recorded as 86.8104% with S. mansoni adult worms (setting [6]); 79.1115% in the assay on S. mansoni adult worms (setting [9]); 52.2584% with S. mansoni adult worms (adult worms ex vivo, 1 hr); 52.8952% in the assay on S. mansoni adult worms (adult worms ex vivo, 3 hr). Further, the “Decrease (%) in GSH/GSSG ratio” value with S. mansoni adult worms was 20%. Besides, the “LD50 ex vivo S. mansoni NTS” value in assay [1] was found to be 9.4 ± 0.74 µM. In assay [1] (Schistosoma mansoni), this compound yielded a viability at 0.1 µM of 99.8%. Moreover, in assay [1] (Schistosoma mansoni), the viability at 1 µM came out at 91.9%. The compound also had a viability at 5 µM in assay [1] (Schistosoma mansoni) of 84.8%. In addition, in assay [1] (Schistosoma mansoni), the viability at 10 µM came out at 33.1%. The compound also had a viability at 15 µM in assay [1] (Schistosoma mansoni) of 28.2%. This compound also showed a viability at 30 µM in assay [1] (Schistosoma mansoni) of 11.9%. Also, the viability at 50 µM in assay [1] (Schistosoma mansoni) was 1.87%. The viability at 100 µM in assay [1] (Schistosoma mansoni) amounted to 0.303%.

Turning to `CC1C(NCc2cn(C3OCC(O)C(O)C3O)c3ccccc23)CC2CC1C2(C)C` (stereo not drawn) [Compound 9], the IC50 on S. mansoni TGR stood at 57.5 ± 2.46 µM. Besides, the inhibition at 1 µM against S. mansoni TGR (TGR, 15 minutes pre-incubation, compound 1 µM) turned out to be 3.4%. Besides, on S. mansoni TGR (TGR, 15 minutes pre-incubation, compound 5 µM), the inhibition at 5 µM turned out to be 11.8%. For the same compound, on S. mansoni TGR (setting [2]), the inhibition at 15 µM turned out to be 32.6%. Besides, on S. mansoni TGR (setting [3]), the inhibition at 30 µM was 49.3%. On S. mansoni TGR (setting [4]), the inhibition at 66.7 µM was 68.2%. The “Ratio GSH/GSSG” value stood at 62.1962 in the assay with S. mansoni adult worms (1 hr, second data set (r136-144), baseline 63.5617, DMSO 63.4928); 71.10 in the assay on S. mansoni adult worms (setting [5]); 55.0997 in the assay on S. mansoni adult worms (3 hr, second data set (r136-144), baseline 63.5617, DMSO 203.124); 64.87 in the assay on S. mansoni adult worms (setting [8]). Also, the “Reduction (%) in GSH/GSSG ratio” value is recorded as 1.8641% in the assay on S. mansoni adult worms (1 hr, third data set); 0.0186% in the assay with S. mansoni adult worms (setting [7]); 10.4658% in the assay with S. mansoni adult worms (3 hr, third data set); 0.10% with S. mansoni adult worms (setting [10]). Moreover, the “% Ratio GSH/GSSG” value in the assay on S. mansoni adult worms (setting [6]) is reported as 98.1359%; in the assay with S. mansoni adult worms (setting [9]) it was 89.5342%. The “Decrease (%) in GSH/GSSG ratio” value in the assay on S. mansoni adult worms is on record as 9%. Besides, the “LD50 ex vivo S. mansoni NTS” value in assay [1] amounted to 11.14 ± 1.04 µM.

For the compound `C[C@@H]1[C@H]2C[C@@H](C[C@H]1NCc1cc(-c3ccccc3)[nH]n1)C2(C)C` [Compound 11], the “S. mansoni TGR IC50” value on S. mansoni TGR is listed as “n.i.^e”. Besides, the inhibition at 15 µM at S. mansoni TGR (15 minutes pre-incubation, 15 µM, read-out: TGR % inhibition) is -0.793%; at S. mansoni TGR (6 hours pre-incubation, 15 µM, read-out: TGR % inhibition), 0.749%. Further, the inhibition at 30 µM at S. mansoni TGR (15 minutes pre-incubation, 30 µM, read-out: TGR % inhibition) was 0.411%; at S. mansoni TGR (6 hours pre-incubation, 30 µM, read-out: TGR % inhibition) it was 1.2%. Also, the inhibition at 66.7 µM on S. mansoni TGR (15 minutes pre-incubation, 66.7 µM, read-out: TGR % inhibition) came out at 1.81%; at S. mansoni TGR (6 hours pre-incubation, 66.7 µM, read-out: TGR % inhibition) it was 5.65%. In addition, the “S. mansoni TGR inhibition (%) at 66.7 µM” value at S. mansoni TGR is listed as “n.i.^e”. Further, the “% Ratio GSH/GSSG” value in the assay with S. mansoni adult worms (adult worms ex vivo, 1 hr) worked out at 59.9789%; in the assay on S. mansoni adult worms (adult worms ex vivo, 3 hr), 59.8685%. For the same compound, the “Reduction (%) in GSH/GSSG ratio” value was 1.477% with S. mansoni adult worms (setting [11]); 0.01477% in the assay on S. mansoni adult worms (setting [12]); 1.659% in the assay on S. mansoni adult worms (adult worms ex vivo, 3 hr, relative to 0hr); 0.01659% in the assay on S. mansoni adult worms (setting [13]). The “LD50 ex vivo S. mansoni NTS” value in assay [1] is >50^a µM.

Turning to `C[C@@H]1[C@H]2C[C@@H](C[C@H]1NCc1nc3ccccc3n1C)C2(C)C` [Compound 12], on S. mansoni TGR, the “S. mansoni TGR IC50” value was “n.i.^e”. For the same compound, the “S. mansoni TGR inhibition (%) at 66.7 µM” value on S. mansoni TGR is reported as “n.i.^e”. For the same compound, the “% Ratio GSH/GSSG” value in the assay with S. mansoni adult worms (adult worms ex vivo, 1 hr) is on record as 59.2209%; with S. mansoni adult worms (adult worms ex vivo, 3 hr) it was 58.1972%. In addition, the “Reduction (%) in GSH/GSSG ratio” value in the assay with S. mansoni adult worms (setting [11]) was 1.36%. Besides, in assay [1], the “LD50 ex vivo S. mansoni NTS” value is recorded as >50^a µM.

Usually IC50 stands for the concentration that inhibits the measured activity by half. One may read the inhibition as the drop in the measured response relative to a control, in per cent. By viability is commonly meant the share of living cells, or the viability signal relative to a control. Read a high viability as better survival.
